The source of these data is patent publication US20230010299A1, “HETEROCYCLIC TRPML1 AGONISTS” (LIBRA THERAPEUTICS, INC., priority 2019, published 2023).

SMILES strings stand for the structures. Where two headings read alike, the source gives them in different places.

The target in one assay is T1, TRPML1 (Homo sapiens, UniProt Q9GZU1).
T1 construct: expressed in transfected cells
Description: Cellular TRPML1 assay (FLIPR TETRA, GCaMP6f calcium read-out). The assay is classed as cell-based. The settings on record: HEK T-REx/GCaMP6f/TRPML1 cells; Ca2+ response over 300 s, normalized to ML-SA1 50 μM; Ca2+ free or Optimem condition not given; read-out: Ec50 (Activity of TRPML1 agonists). The essentials:
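HEK T-REx cells stably expressing TRPML1 and GCaMP6f, assayed 24 h after seeding in Ca2+-free Tyrode's (pH 7.4) or Opti-MEM. Compounds injected on FLIPR Tetra (0.5% DMSO) in dose-response from 100 μM (1:2) or 50 μM (1:3.16); fluorescence kinetics 300 s, referenced to 50 μM ML-SA1 stimulator control.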

Assay [1] relates to autophagy reporter Rosella (LC3 tag) in HeK293 cell line. As to the kind of experiment: Autophagy assay (reporter Rosella, imaging). The assay is classed as cell-based. The settings on record: HeK293 cells stably expressing reporter Rosella, 18 hours incubation, reference Torin-1 1 μM as max signal, read-out: Secondary Assays Autophagy qAC50. How it is done: Buffers and Reagents • Tyrode's buffer with 2 mM Ca^2+ in-house solution (130 mM NaCl, 5 mM KCl, 2 mM CaCl2), 1 mM MgCl2, 5 mM NaHCO3, 20 mM HEPES in water at pH 7.4; sterile filtered) • DMSO (Sigma) • Bis-benzimide H 33342 trihydrochloride (Hoechst 33342; Sigma-Aldrich) • Reference molecule (agonist): Torin-1, (#4247, Tocris) stock 1.2 mM in DMSO, stored at −20° C.
Reporter of Autophagy and Cell Line
Reporter Rosella: a fluorescent-based chimera constitutes by two fluorescent proteins, Green and Red variants, acting as a bimodal indicator of pH. […] The reporter is fused to sequence for autophagosome localization (LC3 tag).
The reporter Rosella have been stably expressed in HeK293 cell line and used as read-out.
Experiments have been performed in 384 MTP poly-lysine coated well format. Cells have been seeded in 384-w at a density of 6000 cells/well in 25 μl/well complete growth medium without antibiotics. Twenty-four hours later, cells have been treated with compounds and incubated for further 18 hours. Then the cells have been imaged and assayed for the response to various compounds using the reporter for autophagy expressed in the cells as readout.
The experiments were performed in a 384-well format according to the following procedure: • 24 h after seeding, cells were incubated with compounds at the desired concentration, and with the reference molecule (agonist) Torin-1 at a top concentration of 1 μM (max signal), for 18 hours at 37° C. and 5% CO2. The final percentage of DMSO was 0.3% in all the conditions. • Then the culture medium was carefully removed to avoid cells detachment and to discard red phenol into the medium and that can interfere with the measurements. • Staining of the nuclei was obtained by incubating the cells with 8 μM/well of Hoechst 3342 in standard Tyrode's buffer for 20 min at RT • Then the cells were carefully washed two times with standard Tyrode's buffer • Finally, the samples were acquired by recording three fluorescence emission channels (green, red and blue) at 20× magnification and with at least 3-4 fields of view per well in an Operetta CLS microscope (PerkinElmer). • Image analysis was performed by using Harmony software (PerkinElmer). The image analysis involved the following steps: flat-field illumination correction, nuclei segmentation, cell segmentations and identification of vesicles/granules within the cytosol compartments and representing the autophagy vesicles. Measurements of signal intensity ratio (Green to Red) and number of autophagy vesicles per cells were used to obtain information on the effects of compounds on the autophagy flux. • Data from image analysis measurements were finally loaded and analyzed for normalization and fitting procedures in Genedata Screener© software.

T1 sequence (Q9GZU1 whole entry): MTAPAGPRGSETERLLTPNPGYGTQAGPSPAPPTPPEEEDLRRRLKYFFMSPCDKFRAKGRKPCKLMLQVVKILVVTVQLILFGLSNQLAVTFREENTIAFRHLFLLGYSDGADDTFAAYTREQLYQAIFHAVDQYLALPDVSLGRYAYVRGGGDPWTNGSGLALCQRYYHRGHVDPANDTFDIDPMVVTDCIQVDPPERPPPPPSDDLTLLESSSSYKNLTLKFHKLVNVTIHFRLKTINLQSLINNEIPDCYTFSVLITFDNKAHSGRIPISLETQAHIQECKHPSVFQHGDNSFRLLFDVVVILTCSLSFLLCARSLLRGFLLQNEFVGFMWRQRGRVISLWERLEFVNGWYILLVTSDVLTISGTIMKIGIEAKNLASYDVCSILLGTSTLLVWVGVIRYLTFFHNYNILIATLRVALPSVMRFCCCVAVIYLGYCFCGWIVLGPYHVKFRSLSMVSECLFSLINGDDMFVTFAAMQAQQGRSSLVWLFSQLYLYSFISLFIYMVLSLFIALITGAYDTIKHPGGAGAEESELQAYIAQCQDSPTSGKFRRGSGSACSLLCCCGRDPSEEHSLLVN

As for `CCN(C(=O)c1ccc(S(=O)(=O)N(C)C)cc1)c1ccccc1N1CCN(C(=O)OC(C)(C)C)CC1` [Example 20, tert-butyl 4-(2-(4-(N,N-dimethylsulfamoyl)-N-ethylbenzamido)phenyl)piperazine-1-carboxylate], the EC50 was found to be 3.4 µM at TRPML1 and 0.46 µM in assay [1] (Homo sapiens).
`Cc1nc(S(=O)(=O)Nc2ccccc2N2CCC(Oc3ccccn3)CC2)c(C)s1` [Example 99, 2,5-dimethyl-N-(2-(4-(pyridin-2-yloxy)piperidin-1-yl)phenyl)thiazole-4-sulfonamide]: the values for the EC50 (at TRPML1; in assay [1] (Homo sapiens)) were 5 µM and 6 µM, respectively.
For `CCc1ccc(S(=O)(=O)Nc2ccccc2N2CCC(C(=O)OC(C)(C)C)CC2)cc1` [Example 19, tert-butyl 1-(2-((4-ethylphenyl)sulfonamido)phenyl)piperidine-4-carboxylate], in that order: 2.1 µM and 0.6 µM.
Consider `CC(C)N(C(=O)c1ccc(S(C)(=O)=O)cc1)c1ccccc1N1CCN(C(=O)OC(C)(C)C)CC1` [Example 96, tert-butyl 4-(2-(N-isopropyl-4-(methylsulfonyl)benzamrdo)phenyl)piperazine-1-carboxylate], for which the EC50 is 7.3 µM at TRPML1 and 11.2 µM in assay [1].
